Test systems include XF 498 CNS; M19-MEL melanoma; DMS 273 small cell lung; HOP-18 NSCLC; SNB-78 CNS; RXF-631 renal; DMS 114 small cell lung; KM20L2 colon; MDA-N.
Common to all, as to test: NCI tumour cell line growth inhibition, 48 h

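Cells were grown in 96-well plates and exposed to each compound for 48 hours at five concentrations; endpoints were interpolated linearly between bracketing concentrations, or set to the highest concentration if not reached. Here, GI50 denotes the concentration required for 50% inhibition of growth. TGI: total growth inhibition.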

Take `Nc1c(Br)c(=O)[nH]c(=O)n1COCCO`: the TGI with XF 498 CNS, with M19-MEL melanoma, with DMS 273 small cell lung, with HOP-18 NSCLC, in the assay on SNB-78 CNS and with RXF-631 renal was above 100 µM each time. For the same compound, the TGI with DMS 114 small cell lung was above 100 µM.

Consider `O=c1c2cccc3cccc(c4oc5c6cccc7cccc(c(=O)c5c14)c76)c32`, for which the TGI was found to be 26.2 µM with KM20L2 colon; 16.9 µM with M19-MEL melanoma; 17.9 µM in the assay with DMS 273 small cell lung; 24.8 µM with HOP-18 NSCLC; 21.2 µM in the assay on SNB-78 CNS; 19.3 µM in the assay on RXF-631 renal. For the same compound, the TGI with DMS 114 small cell lung amounted to 18.5 µM.

Consider `COC1(O)C(=O)c2ccccc2OC1(OC)c1ccccc1` (configuration not stated), for which, in the assay on MDA-N, the TGI was above 100 µM.

The compound `O=C1Nc2ccccc2C1Cc1ccc([N+](=O)[O-])cc1` (configuration not stated) had a TGI in the assay with MDA-N above 100 µM.

As to `Nc1ccn(CCO)c(=O)n1`, the TGI in the assay on KM20L2 colon, with M19-MEL melanoma, in the assay with DMS 273 small cell lung, in the assay on HOP-18 NSCLC, with SNB-78 CNS and in the assay with DMS 114 small cell lung was above 100 µM in each case.

Regarding `O=C(/C=C/c1ccc(Cl)c(Cl)c1)c1ccc(F)cc1`, the TGI was 35.2 µM in the assay with KM20L2 colon; 32.5 µM with M19-MEL melanoma; 26.9 µM with DMS 273 small cell lung; 50.2 µM with HOP-18 NSCLC; 41.1 µM with SNB-78 CNS; above 100 µM in the assay on RXF-631 renal. For the same compound, the TGI in the assay with DMS 114 small cell lung was found to be 30 µM.

`O=C1/C(=C/c2ccc3c(c2)OCO3)CCC1CN1CCOCC1` (configuration not stated): the TGI came to 36.9 µM with KM20L2 colon; 10 µM in the assay on M19-MEL melanoma; 4.07 µM in the assay with MDA-N; 25.3 µM with DMS 273 small cell lung; 31.4 µM with HOP-18 NSCLC; 41.8 µM with SNB-78 CNS. In addition, the results for the TGI in the assay with RXF-631 renal and in the assay on DMS 114 small cell lung were 44.7 µM and 15.6 µM, respectively.

`NC1=C(Br)C(=O)c2ncccc2C1=O`: the TGI in the assay on KM20L2 colon stood at 3.54 µM; with XF 498 CNS, 2.16 µM; in the assay on M19-MEL melanoma it was 0.298 µM; in the assay with DMS 273 small cell lung, 1.44 µM; in the assay on SNB-78 CNS, 2.48 µM; with RXF-631 renal, 3.73 µM. Also, the TGI in the assay with DMS 114 small cell lung is 0.313 µM.

On to `COCC1N=C(c2cc(OC)c(OC)c(OC)c2-c2cc3c(cc2C2OCCCO2)OCO3)O[C@H]1c1ccccc1` (some centres not stated), for which the TGI with KM20L2 colon, in the assay with M19-MEL melanoma, in the assay with DMS 273 small cell lung and in the assay with DMS 114 small cell lung was above 100 µM throughout.

Take `N#C/C(=C1\NN=C(N)C(c2ccc(Cl)cc2)=C1O)c1ccc(Cl)cc1`: the TGI with KM20L2 colon, in the assay with XF 498 CNS, in the assay with M19-MEL melanoma, in the assay with DMS 273 small cell lung, in the assay with HOP-18 NSCLC and in the assay on SNB-78 CNS was above 100 µM throughout. The compound also registered a TGI in the assay with DMS 114 small cell lung above 100 µM.

Consider `Cc1ccc2c(c1C)-c1c(ccc(C)c1C)C(=O)C2=O`, for which the TGI in the assay on MDA-N worked out at 0.348 µM.

As to `C=C1C(=O)OC2C1CC[C@H](C)C13OC(=O)CC1[C@@]23C` (some centres not stated), the TGI in the assay with M19-MEL melanoma, with DMS 273 small cell lung, in the assay with SNB-78 CNS and in the assay on DMS 114 small cell lung was above 100 µM throughout.

With `COc1ccc(C2=NN(C(=O)COc3ccc(Cl)cc3)C(O)(c3ccc(Cl)cc3)C2)cc1` (configuration not stated), the TGI in the assay on KM20L2 colon, with XF 498 CNS, in the assay on DMS 273 small cell lung, with SNB-78 CNS and in the assay with RXF-631 renal was above 100 µM each time.

In the assay on MDA-N, `c1cc(CCN2CCCCC2)ccn1` came in with a TGI above 100 µM.

On to `CCOC(=O)C1=C(NNC(=O)Cc2ccccc2)CSC1=Nc1ccccc1`, for which the TGI in the assay with KM20L2 colon, with XF 498 CNS, with M19-MEL melanoma, in the assay on DMS 273 small cell lung, in the assay with HOP-18 NSCLC and in the assay with SNB-78 CNS was above 100 µM each time. In the assay with RXF-631 renal, this compound returned a TGI above 100 µM.

For `CCCCCCCCC(=O)N(C)C1C2CN3CCC(O2)C13` (configuration not stated), the TGI with KM20L2 colon, with M19-MEL melanoma, in the assay on DMS 273 small cell lung, with HOP-18 NSCLC, with SNB-78 CNS and with DMS 114 small cell lung was above 100 µM each time.

With `O=c1c(Sc2c(O)c3ccccc3c3ccccc3c2=O)c(O)c2ccccc2c2ccccc12`, the TGI with KM20L2 colon is above 100 µM; with M19-MEL melanoma, above 100 µM; with DMS 273 small cell lung, above 100 µM; with HOP-18 NSCLC, above 100 µM; in the assay on RXF-631 renal, above 100 µM; with DMS 114 small cell lung it was 92.3 µM.

For the compound `CN(CC(=O)O)c1ccc(/C=C/c2ccnc3ccccc23)cc1`, in the assay on MDA-N, the TGI turned out to be 53.9 µM.

Turning to `[C-]#[O+].[C-]#[O+].[C-]#[O+].[C-]#[O+].[Ir].[Ir].[O-]c1ccc2ccccc2c1C=Nc1ccc(N=Cc2c([O-])ccc3ccccc23)cc1`, the GI50 in the assay on KM20L2 colon was 59.2 µM; in the assay with XF 498 CNS, above 100 µM; in the assay on M19-MEL melanoma, above 100 µM; in the assay on HOP-18 NSCLC it was above 100 µM; in the assay on SNB-78 CNS it was above 100 µM; with RXF-631 renal, above 100 µM. Moreover, the GI50 in the assay on DMS 114 small cell lung was above 100 µM. Besides, the TGI with KM20L2 colon, with XF 498 CNS, with M19-MEL melanoma, with HOP-18 NSCLC, in the assay with SNB-78 CNS and in the assay with RXF-631 renal was above 100 µM throughout. The same compound gave a TGI with DMS 114 small cell lung above 100 µM.

Take `OCC(O)C(OC1OC(CO)C(O)C(O)C1O)c1nn(-c2ccccc2)c2nc3cc(Cl)c(Cl)cc3cc12` (configuration not stated): the TGI in the assay with KM20L2 colon, in the assay with XF 498 CNS, in the assay on M19-MEL melanoma, in the assay on SNB-78 CNS and in the assay with RXF-631 renal was above 100 µM in each case.

Regarding `CC1CC2C(=O)N(c3ccccc3)C(=O)C2c2c1c1ccccc1n2Cc1ccccc1` (configuration not stated), the TGI in the assay with M19-MEL melanoma and in the assay with DMS 114 small cell lung was above 100 µM throughout.

As to `C=C1CC2(C[C@@H](c3ccccc3)O[C@@H](c3ccccc3)C2)OC1=O` (some centres not stated), the TGI in the assay with MDA-N came to 5.76 µM.

With `O=C(O)CCSCCCN1C(=O)c2ccccc2C1=O`, the TGI in the assay with KM20L2 colon, in the assay with M19-MEL melanoma, with SNB-78 CNS and in the assay on DMS 114 small cell lung was above 100 µM each time.

The values are drawn from PubChem BioAssay (NCI).
